Experimental data published in patent US10485795B2, “FXR (NR1H4) binding and activity modulating compounds” (Gilead Sciences, Inc., priority 2011, dated 2019).
≈ marks a conversion by molar mass, not a printed value.

Legend:
[1] = Aqueous solubility assay; assay type: physicochemical; conditions: PBS buffer, kinetic from dmso stock, pH 7.4, theoretical final concentration of 200 μM
Protocol: The aq. solubility in PBS, pH 7.4 was determined as follows. A 10 mM compound stock solution in DMSO was added to PBS (pH 7.4) to reach a theoretical final concentration of 200 μM. The resulting solution/suspension was shaken at 1250 rpm for 1 h and then stored in the dark at rt for 23 h. At this time any precipitate is separated from the solution by centrifugation at 3900 rpm for 30 min. The aq. solubility was determined by comparing the peak area of the principle peak in a calibration standard (200 μM) in an organic solvent (methanol/water 60:40, v/v) with the peak area of the corresponding peak in the buffer sample. As detection method was used HPLC-UV/VIS at 230 nm.

[2] = Parallel Artificial Membrane Permeation Assay (PAMPA); assay type: in vitro ADME; conditions: Flux (%) = (c acceptor well) / sum (c donor well + c acceptor well) × 100 × 2; PBS pH 7.4, 15-16 h at rt
Protocol: For the PAMPA, 5 mM stock solutions of test items were prepared in DMSO. 5 mM stock solutions of reference items were prepared in EtOH (carbamazepine, guanabenz) or in EtOH:H2O 1:1 (v/v) (ceftriaxone), respectively. Compounds were diluted in PBS (pH 7.4) to obtain the starting solutions containing 5% of the respective organic solvent and 250 μM reference compounds or 10 μM test items, respectively. For the assay, a modified procedure of the PAMPA as described by Kansy et al. Kansy et al. (J. Med. Chem. 1998, 41, 1007) was used. The reference compounds for low (ceftriaxone), medium (guanabenz) and high permeation (carbamazepine) were included as internal controls.
Permeation experiments were carried out in a Multiscreen 96 well tray (donor) covered by a 96-well Multiscreen Immobilon (acceptor). The hydrophobic filter material of the Immobilon plate was pre-wetted with 70% ethanol and treated with a solution of lipids (lecithin dissolved in dodecane). The donor plate was filled with test compounds and reference compounds and both plates were inserted into each other and placed onto an orbital shaker for 15 min at 100 rpm. The transport study was started by applying 150 μL PBS-buffer containing the test and reference compounds to the donor plate. After 15-16 h of diffusion at rt, the contents of the acceptor and donor plate were collected and quantified using LC/MS-detection (test items) or by UV spectroscopy using a Spectramax Plus^384 (Molecular Devices) (reference items). The absorption maxima for the reference items ceftriaxone, guanabenz and carbamazepine were 240 nm, 270 nm and 286 nm, respectively. Recovery samples were prepared as described for the permeation assay samples and were incubated in representative vials during the permeation period under the same conditions.
For LC/MS analysis of the test items, 100 μL incubate were removed from acceptor and donor compartment and processed for acetonitrile (ACN) precipitation as described below. Additionally, test item samples from the lipid layer were extracted by flushing each well two times with 150 μL EA. The solutions were collected in 1.5 mL reaction tubes and the solvent was evaporated. The dried residues were resuspended in a PBS/DMSO/ACN mixture reflecting the composition of the acceptor and donor samples (i.e. 100 μL buffer supplemented with 5% DMSO, 200 μL ACN+ISTD). The final solvent content of each sample was 66% ACN.
Samples from donor and acceptor compartments and calibration standards were precipitated by addition of 200 μL ACN/ISTD or 400 μL ACN/ISTD, respectively. After vigorous shaking (10 seconds) and centrifugation (5 min at 4800×g, rt), the particle free supernatants were subjected to LC-MS/MS. Membrane compartments were extracted as described above. […]

Q: Which solubility at 24 h [1] does the source give for `O=C(O)c1cccc(N2CC(O)(c3ccc(OCc4c(-c5c(Cl)cccc5Cl)noc4C4CC4)cc3Cl)C2)c1` here?
A: 195 µM (≈ 114 µg/mL)

Q: Which solubility at 24 h [1] does the source give for `O=C(O)c1ccc(C2CC(O)(c3ccc(OCc4c(-c5c(Cl)cccc5Cl)noc4C4CC4)cc3Cl)C2)cc1` (stereo not drawn) here?
A: 192 µM (≈ 112 µg/mL)

Q: What about the “PAMPA, Membrane permeability in % Flux” value [2] of the same molecule?
A: 21.1 % Flux

Q: With `O=C(O)c1cccc([C@H]2C[C@](O)(c3ccc(OCc4c(-c5c(Cl)cccc5Cl)noc4C4CC4)cc3Cl)C2)c1` [drawing 47] as the molecule, how does the solubility at 24 h [1] read?
A: 192 µM (≈ 112 µg/mL)

Q: What about the “PAMPA, Membrane permeability in % Flux” value [2] of the same molecule?
A: 24.0 % Flux

Q: For `O=C(O)c1cccc(C2CC2c2ccc(OCc3c(-c4c(Cl)cccc4Cl)noc3C3CC3)cc2Cl)c1` (stereo not drawn) [reference compound], which solubility at 24 h [1] is on record?
A: 20 µM (≈ 11.1 µg/mL)

Q: And the “PAMPA, Membrane permeability in % Flux” value [2]?
A: 13.6 % Flux

Q: For `O=C(O)c1ccc(C2CC2c2ccc(OCc3c(-c4c(Cl)cccc4Cl)noc3C3CC3)cc2Cl)cc1` (stereo not drawn) [reference compound], which solubility at 24 h [1] is on record?
A: 72 µM (≈ 39.9 µg/mL)

Q: And the “PAMPA, Membrane permeability in % Flux” value [2]?
A: 20.7 % Flux
